Laboratory results published in patent publication US20220168384A1, “Anti-Bacterial Combination Therapy” (McMaster University, priority 2019, published 2022).
Converted amounts (≈) assume the structure as drawn. Where two headings read alike, the source gives them in different places.

Key:
P. aeruginosa PA14 = test: Checkerboards pinned to LB agar (bactericidal activity); format: cell-based, Pseudomonas aeruginosa; conditions: overnight 37° C.
Protocol: Checkerboards were pinned to LB agar plates using a sterile 96 pin tool. Plates were incubated overnight at 37° C. Independent experiments were conducted 3 times and a representative plate is shown.

[1] = system: P. aeruginosa PA14 and Mar2xT7 transposon mutants; test: MIC microbroth dilution assay, thiostrepton susceptibility of PA14 and mutants; format: cell-based, Pseudomonas aeruginosa; conditions: for MIC / IC50: Pseudomonas aeruginosa, VBMM; for IC50: read-out: ICCO
Protocol: MICs were determined with microbroth dilution assays in Nunc 96-well plates. Vehicle controls consisted of 1:75 dilutions of DMSO in 10:90 inoculated with PA14 or its mutants as described in “Growth Curves” above. Sterile controls consisted of 1:75 dilutions of DMSO in 10:90. Seven serially diluted concentrations of TS—with 17 μg/mL being the highest final concentration—was set up in triplicate. Tests were done with 1:75 dilutions of each TS concentration in 10:90 inoculated with PA14 or its mutants as described in Growth Curves. Plates were sealed to prevent evaporation and incubated with shaking at 200 rpm, 16 h, 37° C. The OD600 of the plates was read (Multiskan Go—Thermo Fisher Scientific) and used to calculate MIC. Growth is proportional to the darkness intensity whereas white indicates no observable growth. The final volume of each well was 150 μL and each experiment was repeated at least three times.
To identify the route of iron-limitation dependent TS entry into P. aeruginosa, the susceptibility of mutants from the ordered PA14 transposon library (15) that had insertions in genes encoding known siderophore receptors, as well as mutants with insertions in uncharacterized OM proteins with homology to siderophore receptors was tested. In VBMM, most mutants had MICs similar to those of the parental strain (Table 1). […]. P. aeruginosa encodes two type I pyoverdine receptors, FpvA and FpvB, with ˜39% amino acid identity (71% similarity). […]. When fpvA was deleted in the fpvB background, the double mutant had similar resistance levels to the fpvA single mutant (Table 1), but complementation of that mutant with fpvB on a low-copy number plasmid increased TS susceptibility (Table 1).

[2] = PA14, strain chtA::Mar2xT7 (PA4675)
[3] = PA14, strain fithA::Mar2xT7 (PA4516)
[4] = PA14, strain fiuA::Mar2xT7 (PA0470)
[5] = PA14, strain foxA::Mar2xT7 (PA2466)
[6] = PA14, strain fptA::Mar2xT7 (PA4221)
[7] = PA14, strain fpvA fpvB::Mar2xT7 (PA2398, PA4168)
[8] = PA14, strain fpvA fpvB::Mar2xT7 + pUCP20-fpvB
[9] = PA14, strain fpvA fpvB::Mar2xT7 + pUCP20
[10] = PA14, strain fpvA::Mar2xT7 (PA2398)
[11] = PA14, strain fpvB::Mar2xT7 (PA4168)
[12] = PA14, strain hasR::Mar2xT7 (PA3408)
[13] = PA14, strain pfeA::Mar2xT7 (PA2688)
[14] = PA14, strain phuR::Mar2xT7 (PA4710)
[15] = PA14, strain pirA::Mar2xT7 (PA0931)
[16] = PA14, strain piuA::Mar2xT7 (PA4514)
[17] = PA14, strain pvdA::Mar2xT7 (PA2386)

With C=C(NC(=O)C(=C)NC(=O)c1csc(C2=N[C@@H]3c4csc(n4)[C@H]4NC(=O)c5csc(n5)[C@H]([C@](C)(O)[C@@H](C)O)NC(=O)[C@H]5CSC(=N5)/C(=C/C)NC(=O)[C@H]([C@@H](C)O)NC(=O)c5csc(n5)[C@]3(CC2)NC(=O)[C@H](C)NC(=O)C(=C)NC(=O)[C@H](C)NC(=O)[C@H]([C@@H](C)CC)N[C@@H]2C=Cc3c([C@H](C)O)cc(nc3[C@H]2O)C(=O)O[C@@H]4C)n1)C(N)=O [TS, thiostrepton] the “mode of activity of compound alone” value (P. aeruginosa PA14) was “bacteriostatic”, the “susceptibility to TS in Mueller-Hinton broth” value ([1]; P. aeruginosa PA14, nutrient-rich MHB versus 10:90) was “reduced susceptibility” and the MIC ([1]; PA14, strain PA14 (wild type)) was 0.6 µM (≈ 0.999 µg/mL). The IC50 ([1]; PA14, strain PA14 (wild type)) was 0.26 µg/mL (≈ 0.156 µM), the MIC ([1]; PA14, strain PA0151::Mar2xT7) was 0.45 µM (≈ 0.749 µg/mL) and the IC50 ([1]; PA14, strain PA0151::Mar2xT7) was 0.26 µg/mL (≈ 0.156 µM). For the same molecule, the MIC ([1]; PA14, strain PA1322::Mar2xT7) was 0.41 µM (≈ 0.683 µg/mL), the IC50 ([1]; PA14, strain PA1322::Mar2xT7) was 0.26 µg/mL (≈ 0.156 µM) and the MIC ([1]; PA14, strain PA4837::Mar2xT7) was 0.41 µM (≈ 0.683 µg/mL). For the same molecule, the IC50 ([1]; PA14, strain PA4837::Mar2xT7) was 0.26 µg/mL (≈ 0.156 µM), the MIC [1, 2] was 0.36 µM (≈ 0.599 µg/mL) and the IC50 [1, 2] was 0.59 µg/mL (≈ 0.354 µM). For the same molecule, the MIC [1, 3] was 0.5 µM (≈ 0.832 µg/mL), the IC50 [1, 3] was 0.26 µg/mL (≈ 0.156 µM) and the MIC [1, 4] was 0.36 µM (≈ 0.599 µg/mL). The IC50 [1, 4] was 0.26 µg/mL (≈ 0.156 µM), the MIC [1, 5] was 0.6 µM (≈ 0.999 µg/mL) and the IC50 [1, 5] was 0.26 µg/mL (≈ 0.156 µM). For the same molecule, the MIC [1, 6] was 0.45 µM (≈ 0.749 µg/mL), the IC50 [1, 6] was 0.26 µg/mL (≈ 0.156 µM) and the MIC [1, 7] was 7.5 µM (≈ 12.5 µg/mL). The IC50 [1, 7] was 6.9 µg/mL (≈ 4.14 µM), the MIC [1, 8] was 2.5 µM and the IC50 [1, 8] was 2.8 µg/mL. It also gave an MIC [1, 9] of 7.5 µM, an IC50 [1, 9] of 4.2 µg/mL and an MIC [1, 10] of 7.5 µM (≈ 12.5 µg/mL). The IC50 [1, 10] was 3.7 µg/mL (≈ 2.22 µM), the MIC [1, 11] was 1.3 µM (≈ 2.16 µg/mL) and the IC50 [1, 11] was 1.8 µg/mL (≈ 1.08 µM). The MIC [1, 12] was 0.6 µM (≈ 0.999 µg/mL), the IC50 [1, 12] was 0.35 µg/mL (≈ 0.21 µM) and the MIC [1, 13] was 0.82 µM (≈ 1.37 µg/mL). It also gave an IC50 [1, 13] of 0.26 µg/mL (≈ 0.156 µM), an MIC [1, 14] of 0.21 µM (≈ 0.35 µg/mL) and an IC50 [1, 14] of 0.26 µg/mL (≈ 0.156 µM). It also gave an MIC [1, 15] of 0.6 µM (≈ 0.999 µg/mL), an IC50 [1, 15] of 0.35 µg/mL (≈ 0.21 µM) and an MIC [1, 16] of 0.36 µM (≈ 0.599 µg/mL). For the same molecule, the IC50 [1, 16] was 0.35 µg/mL (≈ 0.21 µM), the MIC [1, 17] was 0.21 µM (≈ 0.35 µg/mL) and the IC50 [1, 17] was 0.26 µg/mL (≈ 0.156 µM).
